These molecules were tested on despinalisierten Meerschweinchen (assay: Positive inotropic effect in despinalised guinea pigs (LV-dp/dtmax, i.v. injection)). Conditions: Cavia porcellus, iv; 1 mg/kg i.v.; mean values, each substance tested in 3 despinalised guinea pigs; read-out: Zunahme in LV-dp/dtmax.
Format: in vivo
From the text: Bestimmung der positiv inotropen Wirkung an despinalisierten Meerschweinchen
Die Untersuchungen wurden an despinalisierten Meerschweinchen durchgeführt. Die Tiere wurden mit 50 % 02 + 50 % N2 beatmet. Der arterielle Blutdruck wurde in der rechten Arteria Carotis mit einem Bell and Howell Druckwandler (4-327-1) gemessen. Für die Erfassung der positiv inotropen Wirkung wurde mit einem Kathetertipmanometer (Millar PR-249) der Druck in dem linken Ventrikel (LV) gemessen. Mittels eines Differenzierers wurde LV-dp/dtmax gewonnen. Die zu untersuchenden Substanzen wurden in eine Vena jugularis injiziert. Als Lösungsmittel diente 0,9 % NaCl+Polydiol 200 (1:1).
Jede Substanz wurde an 3 Meerschweinchen überprüft. Die Dosen waren 0,1 - 3 mg/kg i.v.. Die nachfolgende Tabelle enthält die Mittelwerte bei 1 mg/kg i.v..
With `CN(C)S(=O)(=O)c1ccc(-c2cn3ccc(=O)[nH]c3n2)cc1` [Substanz A] the change in vivo at 1 mg/kg was 32%. Molecule `COc1ccc(-c2cn3cc[nH]c(=O)c3n2)cc1` [Substanz B, 2-(4-Methoxy-phenyl)-7H-imidazo[1,2-a]pyrazin-8-on] has a change in vivo at 1 mg/kg of 45%. With `COc1ccc(-c2cn3c(=O)[nH]c(=O)[nH]c3n2)cc1` [Substanz C, 7-(4-Methoxy-phenyl)-1H,3H-imidazo[1,2-a][1.3.5]triazin-2,4-dion] the change in vivo at 1 mg/kg was 86%. Work on `COc1cc(OS(C)(=O)=O)ccc1-c1cn2ccc(=O)[nH]c2n1` [Substanz D, 2-(2-Methoxy-4-methylsulfonyloxy-phenyl)-8H-imidazo-[l,2-a]pyrimidin-7-on] yielded a change in vivo at 1 mg/kg of 63%. `COc1cc(C#N)ccc1-c1cn2ccc(=O)[nH]c2n1` [Substanz E, 2-(2-Methoxy-4-cyano-phenyl)-8H-imidazo[1,2-a]pyrimidin-7-on] was tested, and the change in vivo at 1 mg/kg was 44%. For `COc1cc(S(=O)(=O)N(C)C)ccc1-c1cn2ccc(=O)[nH]c2n1` [Substanz F, 2-(2-Methoxy-4-dimethylaminosulfonyl-phenyl)-8H-imidazo-[1,2-a]pyrimidin-7-on], the change in vivo at 1 mg/kg was 47%. With `CNS(=O)(=O)c1ccc(-c2cn3ccc(=O)[nH]c3n2)c(OC)c1` [Substanz G, 2-(2-Methoxy-4-methylaminosulfonyl-phenyl)-8H-imidazo-[1,2-a]pyrimidin-7-on] the change in vivo at 1 mg/kg was 75%. Molecule `COc1cc(C(=O)N(C)C)ccc1-c1cn2ccc(=O)[nH]c2n1` [Substanz H, 2-(2-Methoxy-4-dimethylaminocarbonyl-phenyl)-8H-imidazo-[l,2-a]pyrimidin-7-on] has a change in vivo at 1 mg/kg of 33%. `COc1cc(OS(C)(=O)=O)ccc1-c1cn2cc[nH]c(=O)c2n1` [Substanz I, 2-(2-Methoxy-4-methylsulfonyloxy-phenyl)-7H-imidazo-[1,2-a]pyrazin-8-on] showed a change in vivo at 1 mg/kg of 98%.

Source: patent publication EP0185346A2, “Imidazo derivatives, their preparation and medicaments containing these compounds” (Dr. Karl Thomae GmbH, priority 1984, dated 1986)
